Assay results published in patent publication US20250171437A1 (Agios Pharmaceuticals,Inc., priority 2022, published 2025).

Target: T1, human PAH with the R408W mutation (A375 R408W cells) (Homo sapiens, UniProt P00439, R408W)
T1 construct: expressed in transfected cells
T1 sequence (P00439 1-452 R408W): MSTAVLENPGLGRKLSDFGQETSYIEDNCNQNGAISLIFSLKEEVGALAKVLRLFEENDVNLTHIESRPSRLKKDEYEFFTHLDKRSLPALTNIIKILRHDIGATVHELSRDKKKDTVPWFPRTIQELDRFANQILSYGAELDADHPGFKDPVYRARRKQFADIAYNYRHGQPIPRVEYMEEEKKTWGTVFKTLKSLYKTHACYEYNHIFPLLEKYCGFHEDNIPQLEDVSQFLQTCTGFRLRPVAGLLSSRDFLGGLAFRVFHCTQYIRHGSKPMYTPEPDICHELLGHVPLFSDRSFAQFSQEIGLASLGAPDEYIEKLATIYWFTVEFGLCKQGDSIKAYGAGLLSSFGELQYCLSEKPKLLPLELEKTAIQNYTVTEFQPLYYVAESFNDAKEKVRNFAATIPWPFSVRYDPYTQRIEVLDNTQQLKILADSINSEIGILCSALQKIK
Assay: Cell Based Phenylalanine Flux Assay
Conditions: A375 R408W cells; 24 hrs with compound, then 20 μM sepiapterin and 800 μM 13C9,15N-Phenylalanine for 4 hours; 13C-Tyrosine by LC-MS; average where tested multiple times
In short: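 AC50 is derived from LC-MS of 13C-tyrosine in the media after a 4 h pulse of 800 μM 13C9,15N-phenylalanine plus 20 μM sepiapterin. The A375 R408W PAH cells had received duplicate 10-point, 2-fold compound dilutions (0.5% DMSO) for 24 h beforehand.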

| Structure (SMILES) | AC50 [nM] |
| --- | --- |
| Cn1ccc(-c2nnc(C(=O)N3CCc4[nH]cnc4[C@@H]3c3nc4cccc(F)c4o3)o2)n1 [Example 338, (R)-(4-(7-fluorobenzo[d]oxazol-2-yl)-6,7-dihydro-1H-imidazo[4,5-c]pyridin-5(4H)-yl)(5-(1-methyl-1H-pyrazol-3-yl)-1,3,4-oxadiazol-2-yl)methanone] | 500 to 1000 |
| COc1ccc2oc([C@@H]3c4nc[nH]c4CCN3C(=O)c3oc(C(C)(C)O)nc3C(F)F)nc2c1 [Example 339, (S)-(4-(difluoromethyl)-2-(2-hydroxypropan-2-yl)oxazol-5-yl)(4-(5-methoxybenzo[d]oxazol-2-yl)-6,7-dihydro-1H-imidazo[4,5-c]pyridin-5(4H)-yl)methanone] | 500 to 1000 |
| COc1ccc2oc([C@H]3c4nc[nH]c4CCN3C(=O)c3oc(C(C)(C)O)nc3C(F)F)nc2c1 [Example 340, (R)-(4-(difluoromethyl)-2-(2-hydroxypropan-2-yl)oxazol-5-yl)(4-(5-methoxybenzo[d]oxazol-2-yl)-6,7-dihydro-1H-imidazo[4,5-c]pyridin-5(4H)-yl)methanone] | 1000 to 5000 |
| COc1ccc2oc([C@@H]3c4nc[nH]c4CCN3C(=O)c3ocnc3C(F)F)nc2c1 [Example 341, (S)-(4-(difluoromethyl)oxazol-5-yl)(4-(5-methoxybenzo[d]oxazol-2-yl)-6,7-dihydro-1H-imidazo[4,5-c]pyridin-5(4H)-yl)methanone] | ≤ 500 |
| COc1ccc2oc([C@H]3c4nc[nH]c4CCN3C(=O)c3ocnc3C(F)F)nc2c1 [Example 342, (R)-(4-(difluoromethyl)oxazol-5-yl)(4-(5-methoxybenzo[d]oxazol-2-yl)-6,7-dihydro-1H-imidazo[4,5-c]pyridin-5(4H)-yl)methanone] | 500 to 1000 |
| Cn1nc(Cl)nc1C(=O)N1CCc2[nH]cnc2[C@H]1c1nc2ccc(F)cc2o1 [Example 343, (S)-(3-chloro-1-methyl-1H-1,2,4-triazol-5-yl)(4-(6-fluorobenzo[d]oxazol-2-yl)-6,7-dihydro-1H-imidazo[4,5-c]pyridin-5(4H)-yl)methanone] | 1000 to 5000 |
| CC(C)(O)c1nc(C(F)F)c(C(=O)N2CCc3[nH]cnc3[C@H]2c2nc3c(F)ccc(F)c3o2)o1 [Example 345, (S)-(4-(4,7-difluorobenzo[d]oxazol-2-yl)-6,7-dihydro-1H-imidazo[4,5-c]pyridin-5(4H)-yl)(4-(difluoromethyl)-2-(2-hydroxypropan-2-yl)oxazol-5-yl)methanone] | ≤ 500 |
| CC(C)(O)c1nc(C(F)F)c(C(=O)N2CCc3[nH]cnc3[C@@H]2c2nc3c(F)ccc(F)c3o2)o1 [Example 346, (R)-(4-(4,7-difluorobenzo[d]oxazol-2-yl)-6,7-dihydro-1H-imidazo[4,5-c]pyridin-5(4H)-yl)(4-(difluoromethyl)-2-(2-hydroxypropan-2-yl)oxazol-5-yl)methanone] | 1000 to 5000 |
| CC(C)(O)c1nc(C(F)F)c(C(=O)N2CCc3[nH]cnc3[C@H]2c2nc3c(F)c(F)ccc3o2)o1 [Example 347, (S)-(4-(4,5-difluorobenzo[d]oxazol-2-yl)-6,7-dihydro-1H-imidazo[4,5-c]pyridin-5(4H)-yl)(4-(difluoromethyl)-2-(2-hydroxypropan-2-yl)oxazol-5-yl)methanone] | 500 to 1000 |
| CC(C)(O)c1nc(C(F)F)c(C(=O)N2CCc3[nH]cnc3[C@@H]2c2nc3c(F)c(F)ccc3o2)o1 [Example 348, (R)-(4-(4,5-difluorobenzo[d]oxazol-2-yl)-6,7-dihydro-1H-imidazo[4,5-c]pyridin-5(4H)-yl)(4-(difluoromethyl)-2-(2-hydroxypropan-2-yl)oxazol-5-yl)methanone] | 1000 to 5000 |
| O=C(c1ocnc1C(F)F)N1CCc2[nH]cnc2[C@@H]1c1nc2c(F)c(F)ccc2o1 [Example 349, (R)-(4-(4,5-difluorobenzo[d]oxazol-2-yl)-6,7-dihydro-1H-imidazo[4,5-c]pyridin-5(4H)-yl)(4-(difluoromethyl)oxazol-5-yl)methanone] | 500 to 1000 |
| O=C(c1ocnc1C(F)F)N1CCc2[nH]cnc2[C@H]1c1nc2c(F)c(F)ccc2o1 [Example 350, (S)-(4-(4,5-difluorobenzo[d]oxazol-2-yl)-6,7-dihydro-1H-imidazo[4,5-c]pyridin-5(4H)-yl)(4-(difluoromethyl)oxazol-5-yl)methanone] | ≤ 500 |
| CC(C)(O)c1nc(C(F)F)c(C(=O)N2CCc3[nH]cnc3[C@H]2c2nc3cc(OC(F)(F)F)ccc3o2)o1 [Example 351, (S)-(4-(difluoromethyl)-2-(2-hydroxypropan-2-yl)oxazol-5-yl)(4-(5-(trifluoromethoxy)benzo[d]oxazol-2-yl)-6,7-dihydro-1H-imidazo[4,5-c]pyridin-5(4H)-yl)methanone] | ≤ 500 |

Next, values leading:

| AC50 [nM] | Structure (SMILES) |
| --- | --- |
| 500 to 1000 | CC(C)(O)c1nc(C(F)F)c(C(=O)N2CCc3[nH]cnc3[C@@H]2c2nc3cc(OC(F)(F)F)ccc3o2)o1 [Example 352, (R)-(4-(difluoromethyl)-2-(2-hydroxypropan-2-yl)oxazol-5-yl)(4-(5-(trifluoromethoxy)benzo[d]oxazol-2-yl)-6,7-dihydro-1H-imidazo[4,5-c]pyridin-5(4H)-yl)methanone] |
| ≤ 500 | O=C(c1ocnc1C(F)F)N1CCc2[nH]cnc2[C@@H]1c1nc2cc(OC(F)(F)F)ccc2o1 [Example 353, (R)-(4-(difluoromethyl)oxazol-5-yl)(4-(5-(trifluoromethoxy)benzo[d]oxazol-2-yl)-6,7-dihydro-1H-imidazo[4,5-c]pyridin-5(4H)-yl)methanone] |
| ≤ 500 | O=C(c1ocnc1C(F)F)N1CCc2[nH]cnc2[C@H]1c1nc2cc(OC(F)(F)F)ccc2o1 [Example 354, (S)-(4-(difluoromethyl)oxazol-5-yl)(4-(5-(trifluoromethoxy)benzo[d]oxazol-2-yl)-6,7-dihydro-1H-imidazo[4,5-c]pyridin-5(4H)-yl)methanone] |
| 500 to 1000 | Cc1ccc2oc([C@@H]3c4nc[nH]c4CCN3C(=O)c3nnc(-c4cc[nH]n4)o3)nc2c1 [Example 355, (S)-(5-(1H-pyrazol-3-yl)-1,3,4-oxadiazol-2-yl)(4-(5-methylbenzo[d]oxazol-2-yl)-6,7-dihydro-1H-imidazo[4,5-c]pyridin-5(4H)-yl)methanone] |
| 1000 to 5000 | Cc1ccc2oc([C@H]3c4nc[nH]c4CCN3C(=O)c3nnc(-c4cc[nH]n4)o3)nc2c1 [Example 356, (R)-(5-(1H-pyrazol-3-yl)-1,3,4-oxadiazol-2-yl)(4-(5-methylbenzo[d]oxazol-2-yl)-6,7-dihydro-1H-imidazo[4,5-c]pyridin-5(4H)-yl)methanone] |
| 500 to 1000 | Cc1ccc2nc([C@@H]3c4nc[nH]c4CCN3C(=O)c3nnc(-c4ccn(C)n4)o3)oc2c1 [Example 357, (S)-(5-(1-methyl-1H-pyrazol-3-yl)-1,3,4-oxadiazol-2-yl)(4-(6-methylbenzo[d]oxazol-2-yl)-6,7-dihydro-1H-imidazo[4,5-c]pyridin-5(4H)-yl)methanone] |
| 1000 to 5000 | Cc1ccc2nc([C@H]3c4nc[nH]c4CCN3C(=O)c3nnc(-c4ccn(C)n4)o3)oc2c1 [Example 358, (R)-(5-(1-methyl-1H-pyrazol-3-yl)-1,3,4-oxadiazol-2-yl)(4-(6-methylbenzo[d]oxazol-2-yl)-6,7-dihydro-1H-imidazo[4,5-c]pyridin-5(4H)-yl)methanone] |
